The values that follow come from the NIST ThermoML archive (doi:10.1021/je901063s).

Where “and” joins values, the source holds several entries; their conditions need not be identical. Identical values can stand only once. ± gives the expanded uncertainty stated by the source.

A short description of data set [1]: of the first substance listed, at infinite dilution; xn = mol fraction of the nth substance listed. The settings on record: 101 kPa, Liquid, flow mixing microcalorimeter, x1 = 0.
A short description of data set [2]: activity coefficient (dimensionless); of the first substance listed, at infinite dilution; xn = mol fraction of the nth substance listed. The conditions noted are these: 101 kPa, Liquid, inert gas stripping, headspace analysis in two variants - the classical and the relative, Rayleigh distillation, and circulation still, x1 = 0.

In the case of `CCC(C)CO` (stereo unspecified) [2-methyl-1-butanol] + O, the partial molar enthalpy in data set [1] (288.15 K) was -11.2 ± 0.4 kJ/mol; in data set [1] (298.15 K), -8.27 ± 0.2 kJ/mol; in data set [1] (308.15 K), -5.38 ± 0.1 kJ/mol. For the same molecule, the activity coefficient in data set [2] (273.35 K) was 86.3 ± 5.2; in data set [2] (283.15 K), 117 ± 7; in data set [2] (293.15 K), 138 and 134; in data set [2] (303.15 K), 158 and 151; in data set [2] (313.15 K), 163 and 173; in data set [2] (323.15 K), 180 and 173. Also, the activity coefficient in data set [2] (333.15 K) is 170 and 179; in data set [2] (343.15 K), 169 ± 10; in data set [2] (353.15 K), 160 ± 10; in data set [2] (363.15 K) it was 162 ± 10.

As to `CCC(C)(C)O` [2-methylbutan-2-ol] + O, the activity coefficient in data set [2] (273.35 K) was 18.3 ± 1.1; in data set [2] (283.15 K), 24.5 ± 1.5; in data set [2] (293.15 K) it was 31.7 and 34.6; in data set [2] (303.15 K), 41.3 and 39.2; in data set [2] (313.15 K), 49 and 46.5; in data set [2] (323.15 K) it was 52.3 and 56.9. Besides, the activity coefficient in data set [2] (333.15 K) is 59.3 and 61.4; in data set [2] (343.15 K), 64.2 ± 3.9; in data set [2] (353.15 K), 67.1 ± 4; in data set [2] (361.25 K) it was 75.4 ± 4.5; in data set [2] (371.45 K), 73.9 ± 4.4.

Turning to `CC(C)C(C)O` (stereo unspecified) [3-methyl-2-butanol] + O, the activity coefficient is 43.5 ± 2.6 in data set [2] (273.35 K); 61.5 ± 3.7 in data set [2] (283.15 K); 73.9 ± 4.4 in data set [2] (293.15 K); 86.5 ± 5.2 in data set [2] (303.15 K); 96.6 ± 5.8 in data set [2] (313.15 K); 104 ± 6 in data set [2] (323.15 K). The activity coefficient in data set [2] (333.15 K) is 110 ± 7; in data set [2] (343.15 K), 111 ± 7; in data set [2] (353.15 K) it was 107 ± 6; in data set [2] (371.15 K), 108 ± 7.

With `CC(C)CCO` [3-methylbutan-1-ol] + O, the activity coefficient is 94.9 ± 5.7 in data set [2] (273.35 K); 126 ± 8 in data set [2] (283.15 K); 148 and 146 in data set [2] (293.15 K); 161 and 164 in data set [2] (303.15 K); 173 and 175 in data set [2] (313.15 K); 179 and 184 in data set [2] (323.15 K). The activity coefficient in data set [2] (333.15 K) was 182 and 178; in data set [2] (343.15 K), 179 ± 11; in data set [2] (353.15 K), 164 ± 10; in data set [2] (371.15 K), 149 ± 9.

With `CCC(O)CC` [3-pentanol] + O, the activity coefficient came to 48.7 ± 2.9 in data set [2] (273.35 K); 63.1 ± 3.8 in data set [2] (283.15 K); 75.6 ± 4.5 in data set [2] (293.15 K); 88.7 ± 5.3 in data set [2] (303.15 K); 101 ± 6 in data set [2] (313.15 K); 108 ± 7 in data set [2] (323.15 K). The activity coefficient in data set [2] (333.15 K) is 116 ± 7; in data set [2] (343.15 K), 111 ± 7; in data set [2] (353.15 K) it was 120 ± 7; in data set [2] (363.15 K), 117 ± 7; in data set [2] (371.15 K), 104 ± 6.

For the molecule `CCCC(C)O` (stereo unspecified) [pentan-2-ol] + O, the activity coefficient is 58.8 ± 3.5 in data set [2] (273.35 K); 73.9 ± 4.4 in data set [2] (283.15 K); 89.2 and 86.1 in data set [2] (293.15 K); 104 and 103 in data set [2] (303.15 K); 119 ± 7 in data set [2] (313.15 K); 129 ± 8 in data set [2] (323.15 K). In addition, the activity coefficient stood at 134 ± 8 in data set [2] (333.15 K); 134 ± 8 in data set [2] (343.15 K); 124 ± 7 in data set [2] (353.15 K); 130 ± 8 in data set [2] (363.15 K); 118 ± 7 in data set [2] (371.15 K).
